Molecular target: NS3 (Hepatitis C virus, UniProt A3EZJ3)
Assay: Inhibitory activity against Hepatitis C virus NS3 protease by ELISA
Design: species or system Hepacivirus hominis

Chain of NS3 (A3EZJ3 whole entry): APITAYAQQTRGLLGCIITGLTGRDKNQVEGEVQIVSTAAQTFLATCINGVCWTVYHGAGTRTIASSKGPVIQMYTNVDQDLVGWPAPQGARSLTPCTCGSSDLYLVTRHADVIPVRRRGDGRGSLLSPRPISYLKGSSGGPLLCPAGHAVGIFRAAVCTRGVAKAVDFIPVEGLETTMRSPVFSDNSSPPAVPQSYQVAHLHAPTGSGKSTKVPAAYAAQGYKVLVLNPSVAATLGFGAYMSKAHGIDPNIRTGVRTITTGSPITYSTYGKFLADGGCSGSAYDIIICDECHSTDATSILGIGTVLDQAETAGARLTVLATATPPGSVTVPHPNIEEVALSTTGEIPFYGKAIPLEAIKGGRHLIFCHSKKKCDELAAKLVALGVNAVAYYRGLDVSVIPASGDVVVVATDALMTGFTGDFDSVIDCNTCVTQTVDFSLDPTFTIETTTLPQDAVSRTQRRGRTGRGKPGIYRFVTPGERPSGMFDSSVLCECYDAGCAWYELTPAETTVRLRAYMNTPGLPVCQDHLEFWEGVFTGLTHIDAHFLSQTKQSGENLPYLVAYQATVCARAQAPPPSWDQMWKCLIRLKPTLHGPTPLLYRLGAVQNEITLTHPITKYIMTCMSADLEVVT

IC50 | SMILES
750 nM | O=C(OC[C@H]1O[C@H](OC(=O)c2cc(O)c(O)c(O)c2)[C@H](OC(=O)c2cc(O)c(O)c(O)c2)[C@@H](OC(=O)c2cc(O)c(O)c(O)c2)[C@@H]1O)c1cc(O)c(O)c(O)c1
1890 nM | O=C(OC[C@H]1O[C@@H](OC(=O)c2cc(O)c(O)c(O)c2)[C@H](OC(=O)c2cc(O)c(O)c(O)c2)[C@@H](O)[C@@H]1O)c1cc(O)c(O)c(O)c1

SMILES | IC50
O=C(OC[C@H]1O[C@@H](OC(=O)c2cc(O)c(O)c(O)c2)[C@H](OC(=O)c2cc(O)c(O)c(O)c2)[C@@H](OC(=O)c2cc(O)c(O)c(O)c2)[C@@H]1OC(=O)c1cc(O)c(O)c(O)c1)c1cc(O)c(O)c(O)c1 [PENTAGALLOYL GLUCOSE] | 1600 nM

Source: ChEMBL document CHEMBL1137108, “Antiviral compounds from traditional Chinese medicines Galla Chinese as inhibitors of HCV NS3 protease” (Bioorg Med Chem Lett, 2004)
